Experimental data reported in US20100268174A1, “COMBINATION OF ALCOHOL LOCK AND GENTIAN VIOLET CATHETER” (priority 2007, published 2010).

Tests used:
[1] = test system: all organisms of interest
Description: Dilutions were prepared in Cationic Adjusted Mueller Hinton Broth (CAMHB). All tests were performed in microtiter plates with a total test volume of 100 μL, including diluted antimicrobial agent and inoculum. Concentrations of antimicrobial agents were prepared at 2× concentration, and 50 μL was added to each well of a microtiter plate, to which 50 μL of inoculum of the test organism was added to give the target test concentration.
Cells were subsequently centrifuged, and resuspended twice in phosphate buffered saline. The population of this bacterial suspension was determined by reading optical density at 670 nm. […] Initial concentrations were verified using the Miles and Misra drop count method. […] Incubation was at 37° C. for 16 to 20 hours.
To determine MBC values, 50 μl was removed from each well showing inhibition of growth (MIC and greater). Solutions from these inhibitory concentrations of antimicrobial agent were diluted in CAMHB to concentrations where they would no longer inhibit the growth of the test organism. Recovery counts were obtained by plating aliquots of the diluted material onto TSA plate containing 5% sheep's blood, and incubating 24 hours at 37° C.

most microorganisms = conditions: Sissons et al. 1996; cited from earlier work
[2] = assay type: physicochemical
Description: One of the surprising findings about the temperature effects is that certain classes of polyurethanes are processable below the degradation temperature and other classes are not.
Compounding Conditions for Stable Gentian Violet:
Barrel Temperatures: • Zone 1-5=170° C. • Zone 6=175° C.,
Compounding Temperature for Degraded Gentian Violet:
Compounding was performed with Sigma Aldrich ACS grade gentian violet, lot 016K3691. HPLC analysis was performed by cutting and measuring 1 cm segments of each formulation (n=3) using the method described in Examples II and III.
The chromatograms show the stable gentian violet followed by the degraded gentian violet, at 588 nm, 253 nm, and 280 nm. The degradation peaks from the 217° C. sample are evident as the new peaks at 253 and 280 nm wavelengths. The chromatogram of the low processing temperature was identical to that of the Gentian Violet raw material.

[3] = Temperature effect (196-219 °C) on degradation of gentian violet compounded in Carbothane resin (HPLC); assay type: physicochemical; conditions: compounded Carbothane resin with 0.5% GV
Description: Gentian violet contents from compounded resin and tube sample were analyzed via HPLC method. HPLC analysis on GV loaded resin or compounded pellets was performed by weighing 0.1-0.3 g, which is roughly equivalent to 10-20 pellets (depending on the weight of the raw material used) of each formulation (n=3) and digesting in THF (5 mL or 7.5 mL) in 50 mL centrifuge tubes. Samples were allowed to sit for 45 minutes, and then vortexed until all of the polymer dissolved. An equal amount of deionized (DI) water was then added (5 or 7.5 mL), and the samples were again vortexed for 5 minutes, and then centrifuged for 10 minutes. A portion of each sample was then added to an HPLC vial and capped prior to HPLC analysis. HPLC analysis was performed on an Agilent 1200 Series LC using an Agilent Eclipse XDB-CN 5μ 4.6×150 mm column with the corresponding guard column. A gradient program was run using two solvent reservoirs: 5 g of gentian violet (Sigma-Aldrich, St. […] Louis, Mo.). 1000 g of Carbothane®-3585A-B20 (Noveon, Cleveland, Ohio) resin was added in to the gentian violet/ethanol solution. The ethanol solvent was evaporated off in a chemical fume hood overnight at ambient conditions. The gentian violet coated pellets were then dried at 50° C. and 30 inches Hg for 24 hrs prior to compounding. […] The melt temperatures from each run are recorded in Table 6. […]

[4] = Temperature effect (high temperatures) on degradation of gentian violet compounded in Carbothane resin (HPLC); assay type: physicochemical; conditions: drop in extractable GV content
Description: Gentian violet contents from compounded resin and tube sample were analyzed via HPLC method. HPLC analysis on GV loaded resin or compounded pellets was performed by weighing 0.1-0.3 g, which is roughly equivalent to 10-20 pellets (depending on the weight of the raw material used) of each formulation (n=3) and digesting in THF (5 mL or 7.5 mL) in 50 mL centrifuge tubes. Samples were allowed to sit for 45 minutes, and then vortexed until all of the polymer dissolved. An equal amount of deionized (DI) water was then added (5 or 7.5 mL), and the samples were again vortexed for 5 minutes, and then centrifuged for 10 minutes. A portion of each sample was then added to an HPLC vial and capped prior to HPLC analysis. HPLC analysis was performed on an Agilent 1200 Series LC using an Agilent Eclipse XDB-CN 5μ 4.6×150 mm column with the corresponding guard column. A gradient program was run using two solvent reservoirs: The sample preparation for loading GV on resin pellets is similar to EXAMPLE V. Gentian violet was purchased from (Sigma-Aldrich, St. Louis, Mo.) and Carbothane®-3585A-B20 (Noveon, Cleveland, Ohio) was used. The heating profile was varied for each run.

Structure (SMILES) | concentration at which the solution will not inhibit microbial growth [1] | subinhibitory concentration ([1]; for all organisms of interest) [%] | ethanol lock concentration cidal towards most commonly encountered infectious pathogens ([1]; suggested by the Table 1 results) | concentration generally considered bactericidal (most microorganisms) [%] | concentration that inhibits the growth of most microorganisms (most microorganisms) [%] | processing temperature at which degradation starts [2] | processing temperature at which extruded gentian violet was found to degrade [2] [°C] | processing temperature that does not degrade gentian violet [2] | processing temperature up to which GV content is essentially unchanged [3] [°C] | onset of degradation (processing temperature) ([3]; worse at 219° C.) [°C] | temperature above which there is significant degradation of the GV [4]
CCO [ethanol] | below 7% | 5 | above 25% | ≥ 40 | 10 |  |  |  |  |  | 
CN(C)c1ccc(C(=C2C=CC(=[N+](C)C)C=C2)c2ccc(N(C)C)cc2)cc1 [gentian violet] |  |  |  |  |  | about 209 °C | 217 | under 207 °C | ≤ 206 | 209 | above 220 °C
